In ChEMBL document CHEMBL3877312, “Synthesis, anticholinesterase activity and molecular modeling study of novel carbamate-substituted thymol/carvacrol derivatives” (Bioorg Med Chem, 2017):

Columns and labels:
Cholinesterase = Cholinesterase (Equus caballus, UniProt P81908); test: Inhibition of horse serum BuChE using butyrylthiocholine iodide as substrate preincubated for 15 mins followed by substrate addition by Ellman's method
Acetylcholinesterase = Acetylcholinesterase (Electrophorus electricus, UniProt O42275); test: Inhibition of electric eel AChE using acetylthiocholine iodide as substrate preincubated for 15 mins followed by substrate addition by Ellman's method
[1] = Cytotoxicity against rat H4IIE cells assessed as cell viability at 0.3 uM after 24 hrs by MTT assay relative to control; type: toxicity; conditions: read-out: Activity
[2] = Cytotoxicity against rat H4IIE cells assessed as cell viability at 0.15 uM after 24 hrs by MTT assay relative to control; type: toxicity; conditions: read-out: Activity
[3] = Cytotoxicity against rat H4IIE cells assessed as cell viability at 0.6 uM after 24 hrs by MTT assay relative to control; type: toxicity; conditions: read-out: Activity
[4] = Cytotoxicity against rat H4IIE cells assessed as cell viability at 0.07 uM after 24 hrs by MTT assay relative to control; type: toxicity; conditions: read-out: Activity
[5] = Cytotoxicity against rat H4IIE cells assessed as cell viability at 2.5 uM after 24 hrs by MTT assay relative to control; type: toxicity; conditions: read-out: Activity
[6] = Cytotoxicity against rat H4IIE cells assessed as cell viability at 5 uM after 24 hrs by MTT assay relative to control; type: toxicity; conditions: read-out: Activity
[7] = Cytotoxicity against rat H4IIE cells assessed as cell viability at 10 uM after 24 hrs by MTT assay relative to control; type: toxicity; conditions: read-out: Activity
[8] = Cytotoxicity against rat H4IIE cells assessed as cell viability at 1.25 uM after 24 hrs by MTT assay relative to control; type: toxicity; conditions: read-out: Activity

Chain of Cholinesterase (P81908 whole entry): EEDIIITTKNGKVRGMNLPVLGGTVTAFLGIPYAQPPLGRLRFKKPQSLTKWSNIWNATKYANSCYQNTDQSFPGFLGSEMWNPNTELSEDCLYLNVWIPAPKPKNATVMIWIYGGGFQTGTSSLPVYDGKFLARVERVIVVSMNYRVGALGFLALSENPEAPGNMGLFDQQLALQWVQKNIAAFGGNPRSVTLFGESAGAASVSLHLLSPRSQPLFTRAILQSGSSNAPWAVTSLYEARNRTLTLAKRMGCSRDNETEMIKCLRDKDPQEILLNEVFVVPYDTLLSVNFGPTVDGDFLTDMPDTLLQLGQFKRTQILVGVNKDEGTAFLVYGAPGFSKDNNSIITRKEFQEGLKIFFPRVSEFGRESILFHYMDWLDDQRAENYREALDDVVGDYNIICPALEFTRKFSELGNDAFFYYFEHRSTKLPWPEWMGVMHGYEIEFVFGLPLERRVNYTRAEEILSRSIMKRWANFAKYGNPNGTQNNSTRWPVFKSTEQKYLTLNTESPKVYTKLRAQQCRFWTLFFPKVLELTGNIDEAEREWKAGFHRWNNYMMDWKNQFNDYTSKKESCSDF
Chain of Acetylcholinesterase (O42275 whole entry): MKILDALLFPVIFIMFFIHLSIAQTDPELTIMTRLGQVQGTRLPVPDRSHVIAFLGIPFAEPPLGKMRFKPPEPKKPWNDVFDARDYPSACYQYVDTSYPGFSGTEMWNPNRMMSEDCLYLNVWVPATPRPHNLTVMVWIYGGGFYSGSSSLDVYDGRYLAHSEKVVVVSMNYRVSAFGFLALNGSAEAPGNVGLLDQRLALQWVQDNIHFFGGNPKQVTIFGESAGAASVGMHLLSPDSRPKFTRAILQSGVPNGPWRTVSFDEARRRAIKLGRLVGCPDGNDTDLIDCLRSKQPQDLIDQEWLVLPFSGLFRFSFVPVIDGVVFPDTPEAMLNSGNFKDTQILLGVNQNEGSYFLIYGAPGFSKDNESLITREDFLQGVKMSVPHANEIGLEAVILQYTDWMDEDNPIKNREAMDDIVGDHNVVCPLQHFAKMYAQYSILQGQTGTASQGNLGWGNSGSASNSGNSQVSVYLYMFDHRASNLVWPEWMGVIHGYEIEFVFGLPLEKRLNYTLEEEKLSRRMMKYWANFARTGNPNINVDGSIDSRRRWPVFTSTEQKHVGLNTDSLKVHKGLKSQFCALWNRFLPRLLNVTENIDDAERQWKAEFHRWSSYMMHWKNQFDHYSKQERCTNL

Structure (SMILES)	IC50 (Cholinesterase)	IC50 (Acetylcholinesterase)	further results
COc1ccc(NC(=O)Oc2cc(C)ccc2C(C)C)cc1	60 µM		
Cc1ccc(NC(=O)Oc2cc(C(C)C)ccc2C)cc1	0.31 µM	6.17 µM	
Cc1ccc(C(C)C)cc1OC(=O)Nc1ccc(Cl)cc1	0.13 µM	148 µM	
Cc1ccc(C(C)C)c(OC(=O)Nc2ccc([N+](=O)[O-])cc2)c1	37.7 µM	2.5 µM	viability at 24 h, 0.3 µM [1]: 54.4%; viability at 24 h, 0.15 µM [2]: 57.8%; viability at 24 h, 0.6 µM [3]: 51.7%; viability at 24 h, 0.07 µM [4]: 97.8%; viability at 24 h, 2.5 µM [5]: 40%; viability at 24 h, 5 µM [6]: 32.8%; viability at 24 h, 10 µM [7]: 26.1%; viability at 24 h, 1.25 µM [8]: 47.2%
Cc1ccc(C(C)C)cc1OC(=O)NCc1ccccc1	0.07 µM	77.8 µM	
Cc1ccc(C(C)C)cc1OC(=O)Nc1ccccc1	0.55 µM	4.01 µM	viability at 24 h, 0.3 µM [1]: 90%; viability at 24 h, 0.15 µM [2]: 87.9%; viability at 24 h, 0.6 µM [3]: 82.5%; viability at 24 h, 0.07 µM [4]: 93.8%; viability at 24 h, 2.5 µM [5]: 43.3%; viability at 24 h, 5 µM [6]: 25.8%; viability at 24 h, 10 µM [7]: 26%; viability at 24 h, 1.25 µM [8]: 60%
COc1cccc(NC(=O)Oc2cc(C(C)C)ccc2C)c1	1.64 µM	2.24 µM	
Cc1ccc(C(C)C)c(OC(=O)Nc2ccc(Cl)c(Cl)c2)c1	2.54 µM	89.5 µM	
Cc1ccc(C(C)C)c(OC(=O)Nc2cccc([N+](=O)[O-])c2)c1	3.31 µM	82.9 µM	
Cc1ccc(C(C)C)cc1OC(=O)Nc1ccc(Cl)c(Cl)c1	0.41 µM	86.2 µM	
Cc1ccc(C(C)C)c(OC(=O)Nc2ccc(Br)cc2)c1	107 µM	98.6 µM	
Cc1ccc(C(C)C)cc1OC(=O)NCC1CCCCC1	0.3 µM	8.08 µM	
Cc1ccc(C(C)C)cc1OC(=O)Nc1cccc(F)c1	1.02 µM	2.22 µM	viability at 24 h, 0.3 µM [1]: 74.1%; viability at 24 h, 0.15 µM [2]: 90%; viability at 24 h, 0.6 µM [3]: 64.4%; viability at 24 h, 0.07 µM [4]: 98.1%; viability at 24 h, 2.5 µM [5]: 45.8%; viability at 24 h, 5 µM [6]: 37.2%; viability at 24 h, 10 µM [7]: 28.5%; viability at 24 h, 1.25 µM [8]: 47.8%
COc1ccc(NC(=O)Oc2cc(C(C)C)ccc2C)cc1	0.52 µM	54.5 µM	
Cc1ccc(C(C)C)c(OC(=O)NC2CCCC2)c1	167 µM	420 µM	
Cc1ccc(C(C)C)cc1OC(=O)Nc1cccc2ccccc12	0.51 µM	127 µM	
Cc1ccc(C(C)C)cc1OC(=O)NC1CCCCCC1	112 µM	126 µM	
Cc1ccc(C(C)C)c(OC(=O)Nc2ccc(F)cc2)c1	405 µM	270 µM	
Cc1ccc(C(C)C)cc1OC(=O)NC1CCCCC1	1.03 µM	23 µM	

Structure (SMILES)	IC50 (Cholinesterase)	IC50 (Acetylcholinesterase)	further results
Cc1ccc(C(C)C)cc1OC(=O)Nc1ccc([N+](=O)[O-])cc1	1.05 µM	121 µM	
COc1cccc(NC(=O)Oc2cc(C)ccc2C(C)C)c1	1.65 µM	154 µM	
Cc1ccc(C(C)C)cc1OC(=O)Nc1ccc(Br)cc1	0.15 µM	104 µM	
Cc1ccc(NC(=O)Oc2cc(C)ccc2C(C)C)cc1	9.4 µM	229 µM	
Cc1ccc(C(C)C)cc1OC(=O)Nc1ccc(C(F)(F)F)cc1	1.23 µM	85.7 µM	
Cc1ccc(C(C)C)c(OC(=O)Nc2ccc(C(F)(F)F)cc2)c1	148 µM	98.5 µM	
Cc1ccc(C(C)C)c(OC(=O)Nc2cccc(F)c2)c1	3.85 µM	88.5 µM	
Cc1ccc(C(C)C)cc1OC(=O)NC1CCCC1	1.01 µM	3.37 µM	viability at 24 h, 0.3 µM [1]: 71.1%; viability at 24 h, 0.15 µM [2]: 75.6%; viability at 24 h, 0.6 µM [3]: 63.3%; viability at 24 h, 0.07 µM [4]: 94.4%; viability at 24 h, 2.5 µM [5]: 47.8%; viability at 24 h, 5 µM [6]: 38.9%; viability at 24 h, 10 µM [7]: 37.4%; viability at 24 h, 1.25 µM [8]: 50.4%
Cc1ccc(C(C)C)c(OC(=O)NCC2CCCCC2)c1	36.8 µM		
Cc1ccc(C(C)C)cc1OC(=O)Nc1cccc([N+](=O)[O-])c1	0.56 µM	5.05 µM	
Cc1ccc(C(C)C)c(OC(=O)Nc2ccc(Cl)cc2)c1	137 µM	229 µM	
Cc1ccc(C(C)C)c(OC(=O)Nc2ccccc2)c1	5.02 µM	198 µM	
Cc1ccc(C(C)C)cc1OC(=O)Nc1ccc(F)cc1	0.02 µM	3.02 µM	viability at 24 h, 0.3 µM [1]: 68.9%; viability at 24 h, 0.15 µM [2]: 69.4%; viability at 24 h, 0.6 µM [3]: 65.9%; viability at 24 h, 0.07 µM [4]: 92.8%; viability at 24 h, 2.5 µM [5]: 41.6%; viability at 24 h, 5 µM [6]: 32.8%; viability at 24 h, 10 µM [7]: 28.5%; viability at 24 h, 1.25 µM [8]: 62.2%
Cc1ccc(C(C)C)c(OC(=O)NCc2ccccc2)c1	1.45 µM	111 µM	
Cc1ccc(C(C)C)cc1OC(=O)Nc1ccc(I)cc1	0.21 µM	138 µM	
Cc1ccc(C(C)C)c(OC(=O)Nc2ccc(I)cc2)c1	4.77 µM	31.6 µM	
Cc1ccc(C(C)C)c(OC(=O)Nc2cccc3ccccc23)c1	96.1 µM	157 µM	
Cc1ccc(C(C)C)cc1O [CARVACROL]	411 µM	288 µM	
Cc1ccc(C(C)C)c(O)c1 [THYMOL]	226 µM	458 µM	
